The values that follow come from US9949981B2, “Compositions and methods for treating proliferation disorders” (Arqule, Inc., priority 2014, dated 2018).

Read-outs that look alike come from different tables or passages of the source.

One assay deals with AKT1 (Homo sapiens, UniProt P31749). Briefly: Inactive AKT Alpha Screen Assay.
The subject of assay [1] is pPRAS40 in KU-19-19 (E17K) mutant bladder cancer cells. Briefly: pPRAS40 in KU-19-19 cells, two hour treatment. Conditions: normal medium, 2 hours, FIGS. 17 and 18.
The test system of assay [2] is pAKT in KU-19-19 (E17K) mutant bladder cancer cells. The assay can be described thus: pAKT in KU-19-19 cells, two hour treatment. Conditions: normal medium, 2 hours, FIGS. 17 and 18.
The subject of assay [3] is AKT1 phosphorylation in Proteus single cell clones. Conditions: FIG. 15.
In assay [4] the test system is Proteus single cell clones (A6B AKT1 p.E17K positive and E8F9A mutation negative cells). The assay can be described thus: Viability of Proteus single cell clones. Conditions: presence or absence of serum; 24 hours serum starvation; 72 hours; FIGS. 5A and 5B. In kind it is cell-based, human.
Assay [5] deals with S6 phosphorylation in Proteus single cell clones. Conditions: F6B mutation positive and H4A mutation negative clones; with or without serum; FIGS. 16A and 16B.

Sequence of AKT1 (P31749 whole entry): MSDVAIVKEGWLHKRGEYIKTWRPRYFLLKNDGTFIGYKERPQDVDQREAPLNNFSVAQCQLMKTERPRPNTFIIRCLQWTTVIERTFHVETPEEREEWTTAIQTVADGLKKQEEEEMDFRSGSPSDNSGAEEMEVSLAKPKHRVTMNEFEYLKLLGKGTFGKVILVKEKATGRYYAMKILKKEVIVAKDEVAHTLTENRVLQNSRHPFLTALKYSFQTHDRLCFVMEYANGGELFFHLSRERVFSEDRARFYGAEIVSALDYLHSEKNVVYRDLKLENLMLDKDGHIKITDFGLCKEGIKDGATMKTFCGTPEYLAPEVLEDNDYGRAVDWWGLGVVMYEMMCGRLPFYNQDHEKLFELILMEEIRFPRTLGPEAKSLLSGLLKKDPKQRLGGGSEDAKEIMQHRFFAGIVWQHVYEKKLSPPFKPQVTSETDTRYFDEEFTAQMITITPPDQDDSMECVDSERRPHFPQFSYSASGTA

Regarding `Nc1ncccc1-c1nc2ccc(-c3cccc(N4CCOCC4)c3)nc2n1-c1ccc(C2(N)CCC2)cc1` [Compound 2, 3-(3-(4-(1-aminocyclobutyl)phenyl)-5-(3-morpholinophenyl)-3H-imidazo[4,5-b]pyridin-2-yl)pyridin-2-amine], the IC50 (in general, the midpoint of a concentration-inhibition curve) against AKT1 was 2.2 nM.
As for `NC1(c2ccc(-c3nc4ccn5c(=O)[nH]nc5c4cc3-c3ccccc3)cc2)CCC1` [MK-2206, reference compound], the pPRAS40 result in assay [1] is given as “inhibit”. Also, in assay [2], the pAKT entry is recorded as “inhibit”.
Turning to `CO[C@H]1C[C@@H]2CC[C@@H](C)[C@@](O)(O2)C(=O)C(=O)N2CCCC[C@H]2C(=O)O[C@H]([C@H](C)C[C@@H]2CC[C@@H](OCCO)[C@H](OC)C2)CC(=O)[C@H](C)/C=C(\C)[C@@H](O)[C@@H](OC)C(=O)[C@H](C)C[C@H](C)/C=C/C=C/C=C/1C` [everolimus], the pAKT/AKT ratio result was “decreases the pAKT/AKT ratio” in assay [3] (F6B AKT1 p.E17K mutant cells in serum free conditions) and “has no effect or increases the ratio” in assay [3] (mutant negative cells (H4A) or mutant cells gown in serum free conditions). In addition, the “viability of Proteus single cell clones” value in assay [4] was “mutation positive cells are more sensitive than control cells”. In addition, the pS6 levels result in assay [5] is reported as “greatly decreases pS6 levels”.
